Laboratory results: ChEMBL document CHEMBL1144740, “Structural characterization and DPPH radical scavenging activity of an arabinoglucogalactan from Panax notoginseng root” (J Nat Prod, 2008)

Assay: DPPH radical scavenging activity
Type: ADME

Compound | SC50 [µg/mL]
O=C1O[C@H]([C@@H](O)CO)C(O)=C1O [ASCORBIC ACID] | 5.24
OC[C@@H](O)[C@@H]1O[C@H]2O[C@@H]3[C@@H](O)[C@H](O[C@@H]4[C@@H](O)[C@H](O[C@@H]5[C@@H](O)[C@H](O[C@@H]6[C@@H](O)[C@H](O[C@@H]7[C@@H](O)[C@H](O[C@@H]8[C@@H](O)[C@H](O[C@@H]9[C@@H](O)[C@H](O[C@@H]1[C@H]2O)O[C@H]9[C@H](O)CO)O[C@H]8[C@H](O)CO)O[C@H]7[C@H](O)CO)O[C@H]6[C@H](O)CO[C@@H]1O[C@H](CO)[C@@H](O[C@@H]2O[C@H](CO)[C@@H](O)[C@@H]2O)[C@H](O)[C@H]1O)O[C@H]5[C@H](O)CO)O[C@H]4[C@H](O)CO)O[C@H]3[C@H](O)CO | 11.72
